Patent US20070073056A1, “4-Substituted Pyrazoline Compounds, their Preparation and Use as Medicaments” (LABORATORIOS DEL DR. ESTEVE, S.A., priority 2005, published 2007)

Target: CB1-receptor (UniProt P20272)
Test: binding of the pyrazoline compounds to CB1-receptors (Pharmacological Methods, Part I)
Set-up: other: 10^−7 M; other: 10^−8 M; species or system human or rat
Procedure: I. In-vitro Determination of Affinity to CB1/CB2-Receptors
The in-vitro determination of the affinity of the inventive 4-substituted pyrazoline compounds to CB1/CB2-Rezeptors is carried out as described in the publication of Ruth A. Ross, Heather C. Brockie et al., “Agonist-inverse agonist characterisation at CB1 and CB2 cannabinoid receptors of L-759633, L759656 and AM630”, British Journal of Pharmacology, 126, 665-672, (1999), whereby the transfected human CB1 and CB2 receptors of Receptor Biology, Inc. are used. The radioligand used for both receptors is [^3H]-CP55940. The respective parts of the description is hereby incorporated by reference and forms part of the present disclosure.
Rat Cerebellum CB1 Binding
Binding affinity to CB1 receptor was evaluated according to a modification of the method described by Govaerts et al., Eur J Pharmac Sci 23, 233-243 (2004). The respective parts of the description is hereby incorporated by reference and forms part of the present disclosure.
Briefly, cerebellum from male wistar rats (250-300 g) were carefully dissected on ice and homogenates were prepared with Potter-Helveheim in a cold 50 mM Tris-HCl solution containing 5 mM MgCl2, 1 mM EDTA and 0.25 M sucrose, pH 7.4. The suspension was centrifuged at […] for 5 minutes. The supernatants were collected and centrifuged 50,000×g for 15 minutes. The resulting pellets were then resuspended in Tris-HCl buffer without sucrose, homogenized and incubated for 15 min at 37° C. in an orbital shaker bath and centrifuged again at 50,000×g for 15 min. Pellets were weighted, resuspended in Tris-HCl buffer without sucrose, homogenized with Ultraturrax at 13,500 rpm for 3×5 seconds and alicuoted in 0.9 ml volumes in Eppendorf tubes. Alicuotes were centrifuged at 20,800×g for 5 minutes, supernatants discarded and pellets were frozen at −80° C. until use. Total protein concentration was determined using the Bio-Rad Lowry method based kit. Competitive binding experiments were performed in presence of 1 nM [^3H]-CP 55,940 in siliconized glass tubes containing 100 μg protein/tube resuspended in 1 ml final volume of 50 mM Tris-HCl, 5 mM MgCl2, 1 mM EDTA, 0.5% (w/v) bovine serum albumin, pH 7.4. Compounds were present at various concentrations and the non specific binding was determined in the presence of 10 μM HU-210. After 1 hour incubation at 30° C., the suspension was rapidly filtered through 0.5% PEI pre-treated GF/B fiber filters on a 96-well harvester and washed 3 times with 3 ml ice-cold binding buffer without bovine serum albumin. Radioactivity on filters was measured with Wallac Winspectral 1414 counter by liquid scintillation in 6 ml Ecoscint H (National Diagnostics, U.K.). Assays were made in triplicates.
Binding data were analyzed by non-linear regression with the software GraphPad Prism Version 3.03.
The binding of the pyrazoline compounds of general formula I to CB1-receptors was determined according to the method described in the section Pharmacological Methods, Part I.

Inhibition (10^−7 M) [%] | Inhibition (10^−8 M, in %) | Compound
40.9 | 14.7 | C[C@@H]1C(C(=O)N[C@@H]2CCCC[C@H]2OCc2ccccc2)=NN(c2ccc(Cl)cc2Cl)[C@@H]1c1ccc(Cl)cc1 (mixture of isomers) [Example 437, (−)-cis-N-((1R,2R)-2-(benzyloxy)cyclohexyl)-5-(4-chlorophenyl)-1-(2,4-dichlorophenyl)-4-methyl-4,5-dihydro-1H-pyrazole-3-carboxamide]
42.6 | 28.4 | CC[C@@H]1C(C(=O)NN2CCCCC2)=NN(c2ccc(Cl)cc2Cl)[C@@H]1c1ccc(Br)cc1.Cl (relative stereo) [Example 428, cis-5-(4-bromophenyl)-1-(2,4-dichlorophenyl)-4-ethyl-N-(piperidin-1-yl)-4,5-dihydro-1H-pyrazole-3-carboxamide hydrochloride]
28.3 | −13 | C[C@@H]1C(C(=O)NCC2CCCCC2)=NN(c2ccc(Cl)cc2Cl)[C@@H]1c1ccc(Cl)cc1 (relative stereo) [Example 114, cis-5-(4-chlorophenyl)-N-(cyclohexylmethyl)-1-(2,4-dichlorophenyl)-4-methyl-4,5-dihydro-1H-pyrazole-3-carboxamide]
79.3 | 32.3 | C[C@@H]1C(C(=O)NN2CCc3ccccc32)=NN(c2ccc(Cl)cc2Cl)[C@@H]1c1ccc(Br)cc1 (relative stereo) [Example 415, cis-5-(4-bromophenyl)-1-(2,4-dichlorophenyl)-N-(indolin-1-yl)-4-methyl-4,5-dihydro-1H-pyrazole-3-carboxamide]
41 | 20.7 | C[C@H]1C(C(=O)NN2CCCC2)=NN(c2ccc(Cl)cc2Cl)[C@H]1c1ccc(Cl)cc1 (relative stereo) [Example 7, cis-5-(4-Chloro-phenyl)-1-(2,4-dichloro-phenyl)-4-methyl-4,5-dihydro-1H-pyrazole-3-carboxylic acid pyrrolidin-1-ylamide]
35.3 | 18.0 | C[C@@H]1C(C(=O)N[C@H]2CCCC[C@@H]2O)=NN(c2ccc(Cl)cc2Cl)[C@@H]1c1ccc(Cl)cc1 (mixture of isomers) [Example 128, (+)-cis-5-(4-chlorophenyl)-1-(2,4-dichlorophenyl)-N-((1S,2S)-2-hydroxycyclohexyl)-4-methyl-4,5-dihydro-1H-pyrazole-3-carboxamide]
75.5 | 37 | C[C@@H]1C(C(=O)NN2CCCCCCC2)=NN(c2ccc(Cl)cc2Cl)[C@@H]1c1ccc(Cl)cc1 (relative stereo) [Example 120, cis-N-(azocan-1-yl)-5-(4-chlorophenyl)-1-(2,4-dichlorophenyl)-4-methyl-4,5-dihydro-1H-pyrazole-3-carboxamide]
11 | 7.2 | C[C@H]1C(C(=O)O)=NN(c2ccc(Cl)cc2Cl)[C@H]1c1cccs1 (racemic) [Example 367, cis-1-(2,4-dichlorophenyl)-4-methyl-5-(thiophen-2-yl)-4,5-dihydro-1H-pyrazole-3-carboxylic acid]
23 | 11 | CC[C@H]1C(C(=O)O)=NN(c2ccc(Cl)cc2Cl)[C@H]1c1ccc(Cl)cc1 (racemic) [Example 21, cis-5-(4-Chloro-phenyl)-1-(2,4-dichloro-phenyl)-4-ethyl-4,5-dihydro-1H-pyrazole-3-carboxylic acid]
36.2 | 28.7 | C[C@@H]1C(C(=O)NN2CCCCCC2)=NN(c2ccc(Cl)cc2Cl)[C@@H]1c1ccc(F)cc1 (stereo in doubt) [Example 414, cis-N-(azepan-1-yl)-1-(2,4-dichlorophenyl)-5-(4-fluorophenyl)-4-methyl-4,5-dihydro-1H-pyrazole-3-carboxamide]
−11 | −10.1 | CC1C(C(=O)O)=NN(c2ccc(Cl)cc2Cl)C1c1ccccc1 (centres unmarked) [Example 429, 1-(2,4-dichlorophenyl)-4-methyl-5-phenyl-4,5-dihydro-1H-pyrazole-3-carboxylic acid]
−6.3 | −2.2 | C[C@H]1C(C(=O)O)=NN(c2ccc(Cl)cc2Cl)[C@H]1c1ccc(F)cc1 (racemic) [Example 221, cis-1-(2,4-dichlorophenyl)-5-(4-fluorophenyl)-4-methyl-4,5-dihydro-1H-pyrazole-3-carboxylic acid]
17.3 | 13.8 | C[C@H]1C(C(=O)O)=NN(c2ccc(Cl)cc2Cl)[C@H]1c1ccc(Br)cc1 (relative stereo) [Example 413, cis-5-(4-bromophenyl)-1-(2,4-dichlorophenyl)-4-methyl-4,5-dihydro-1H-pyrazole-3-carboxylic acid]
31.2 | 38 | CCOC(=O)C1=NN(c2ccc(Cl)cc2Cl)[C@@H](c2ccccc2)[C@@H]1C (relative stereo) [Example 421, trans-ethyl 1-(2,4-dichlorophenyl)-4-methyl-5-phenyl-4,5-dihydro-1H-pyrazole-3-carboxylate]
31.4 | 35.9 | C[C@@H]1C(C(=O)NN2Cc3cccc4cccc(c34)C2)=NN(c2ccc(Cl)cc2Cl)[C@@H]1c1ccc(Cl)cc1 (relative stereo) [Example 105, cis-5-(4-Chlorophenyl)-1-(2,4-dichlorophenyl)-4-methyl-4,5-dihydro-1H-pyrazole-3-carboxylic acid (1H,3H-benzo[de]isoquinolin-2-yl)-amide]
34.9 | 27.7 | C[C@@H]1C(C(=O)NN2CCOCC2)=NN(c2ccc(Cl)cc2Cl)[C@@H]1c1ccc(Cl)cc1 (relative stereo) [Example 101, cis-5-(4-chlorophenyl)-1-(2,4-dichlorophenyl)-4-methyl-N-morpholino-4,5-dihydro-1H-pyrazole-3-carboxamide]
31.7 | −0.4 | C[C@@H]1C(C(=O)NN2C(=O)c3cccc4cccc(c34)C2=O)=NN(c2ccc(Cl)cc2Cl)[C@@H]1c1ccc(Cl)cc1 (relative stereo) [Example 104, cis-5-(4-Chlorophenyl)-1-(2,4-dichlorophenyl)-4-methyl-4,5-dihydro-1H-pyrazole-3-carboxylic acid (1,3-dioxo-1H,3H-benzo[de]isoquinolin-2-yl)-amide]
−11.2 | 3 | C[C@@H]1C(C(=O)O)=NN(c2ccc(Cl)cc2Cl)[C@H]1c1ccc(Br)cc1 (relative stereo) [Example 200, trans-5-(4-bromophenyl)-1-(2,4-dichlorophenyl)-4-methyl-4,5-dihydro-1H-pyrazole-3-carboxylic acid]
39.0 | 10.2 | COc1ccc([C@@H]2[C@H](C)C(C(=O)N[C@H]3CCCC[C@@H]3O)=NN2c2ccc(Cl)cc2Cl)cc1 (mixture of isomers) [Example 281, (+)-cis-1-(2,4-dichlorophenyl)-N-((1S,2S)-2-hydroxycyclohexyl)-5-(4-methoxyphenyl)-4-methyl-4,5-dihydro-1H-pyrazole-3-carboxamide]

Compound | Inhibition (10^−7 M) [%] | Inhibition (10^−8 M, in %)
COC[C@H]1CCCN1NC(=O)C1=NN(c2ccc(Cl)cc2Cl)[C@H](c2ccc(Cl)cc2)[C@@H]1C.Cl (mixture of isomers) [Example 106, cis-5-(4-chlorophenyl)-1-(2,4-dichlorophenyl)-N-((R)-2-(methoxymethyl)pyrrolidin-1-yl)-4-methyl-4,5-dihydro-1H-pyrazole-3-carboxamide hydrochloride] | 39 | 20.4
cis-1-(2,4-dichlorophenyl)-5-(4-hydroxyphenyl)-4-methyl-N-(piperidin-1-yl)-4,5-dihydro-1H-pyrazole-3-carboxamide [Example 343] | −10.1 | −15.8
C[C@H]1C(C(=O)NN2CC3CCCC3C2)=NN(c2ccc(Cl)cc2Cl)[C@H]1c1ccc(F)cc1.Cl (relative stereo) [Example 233, cis-1-(2,4-dichlorophenyl)-5-(4-fluorophenyl)-N-(hexahydrocyclopenta[c]pyrrol-2(1H)-yl)-4-methyl-4,5-dihydro-1H-pyrazole-3-carboxamide hydrochloride] | 43.9 | 27.9
